Assay results taken from US4160829A, “Antibacterial 1,2,4-oxadiazolylacetamido cephalosporins” (Gist-Brocades N.V., priority 1972, dated 1979).
In brackets after ≈: the same amount, converted by molar mass.

What was measured:
Bac.Subt.ATCC 6633 = experiment: agar serial dilution test; format: cell-based, Bacillus subtilis; details: agar serial dilution, 24 hours, 37° C.
Staph.aureus A 321 = experiment: agar serial dilution test; format: cell-based, Staphylococcus aureus; details: agar serial dilution, 24 hours, 37° C.
Staph.aureus A 2000 [1] = experiment: agar serial dilution test; format: cell-based, Staphylococcus aureus; details: agar serial dilution, 24 hours, 37° C.
Staph.aureus A 2001 [2] = experiment: agar serial dilution test; format: cell-based, Staphylococcus aureus; details: agar serial dilution, 24 hours, 37° C.
Strep. faec. L 80 = experiment: agar serial dilution test; format: cell-based, Streptococcus faecalis; details: agar serial dilution, 24 hours, 37° C.
Dipl.pneum. L 54 = experiment: agar serial dilution test; format: cell-based, Diplococcus pneumoniae; details: agar serial dilution, 24 hours, 37° C.
Past.multo. A 723 = experiment: agar serial dilution test; format: cell-based, Pasteurella multocida; details: agar serial dilution, 24 hours, 37° C.
Kleb.pneum. A 809 = experiment: agar serial dilution test; format: cell-based, Klebsiella pneumoniae; details: agar serial dilution, 24 hours, 37° C.
Salm.dubl. P 43 = experiment: agar serial dilution test; format: cell-based, Salmonella dublin; details: agar serial dilution, 24 hours, 37° C.
Salm.typh. R 127 = experiment: agar serial dilution test; format: cell-based; details: 37° C.
Esch.coli U 20 = experiment: agar serial dilution test; format: cell-based, Escherichia coli; details: agar serial dilution, 24 hours, 37° C.
Shig.equir. T 3 = experiment: agar serial dilution test; format: cell-based; details: 37° C.
Pseud.aerug. H 10 = experiment: agar serial dilution test; format: cell-based; details: agar serial dilution, 24 hours, 37° C.
Pseud.aerug. 2396 = experiment: agar serial dilution test; format: cell-based; details: agar serial dilution, 24 hours, 37° C.
[3] = test system: Pseud.aerug. Wyeth A 1058; experiment: agar serial dilution test; format: cell-based; details: agar serial dilution, 24 hours, 37° C.
Prot.rettg. A 821 = experiment: agar serial dilution test; format: cell-based, Proteus rettgeri; details: agar serial dilution, 24 hours, 37° C.
Prot.mirab. H 3 = experiment: agar serial dilution test; format: cell-based, Proteus mirabilis; details: agar serial dilution, 24 hours, 37° C.
Prot.mirab. L 93 = experiment: agar serial dilution test; format: cell-based, Proteus mirabilis; details: agar serial dilution, 24 hours, 37° C.
Prot.mirab. A 1200 = experiment: agar serial dilution test; format: cell-based, Proteus mirabilis; details: agar serial dilution, 24 hours, 37° C.
Prot.morg. 2241 = experiment: agar serial dilution test; format: cell-based; details: agar serial dilution, 24 hours, 37° C.
Staph.aureus A 355 [4] = experiment: micro serial dilution test; format: cell-based, Staphylococcus aureus; details: micro serial dilution (in brackets), about 18 hours, 30° C. or 37° C., penicillinase-producing strain
From the text: Two drops of a stock solution of the test compound (antibiotic) in a known concentration were brought into the first hole of a test plate with 9 numbered holes with a sterile Pasteur pipette. After rinsing this pipette three times with a physiological NaCl-solution, two drops of a stock solution of the test organism in a culture medium were brought in all the holes except for hole 8. In the first hole, the solution of the tested compound had been half diluted, then by stirring the liquid in the first hole and adding two drops of this mixture to the second hole and so on until hole 8, dilutions of the test compound solution were obtained in geometrical progression. The hole 9 contained no antibiotic and served for checking the growth of the testogranism in a blank medium. The test plate was incubated at 30° C. or 37° C. for about 18 hours.
^1 Penicillinase-producing strain

Staph.aureus A 2000 [5] = experiment: micro serial dilution test; format: cell-based, Staphylococcus aureus; details: micro serial dilution (in brackets), about 18 hours, 30° C. or 37° C.
Staph.aureus A 2001 [6] = experiment: micro serial dilution test; format: cell-based, Staphylococcus aureus; details: micro serial dilution (in brackets), about 18 hours, 30° C. or 37° C.
Haem.infl. A 1030 = experiment: micro serial dilution test; format: cell-based; details: micro serial dilution (in brackets), about 18 hours, 30° C. or 37° C.
Staph.aureus A 355 [7] = experiment: agar serial dilution test; details: penicillinase-producing strain
Strep.haem. A 266 = experiment: agar serial dilution test; format: cell-based, Streptococcus haemolyticus; details: Streptococcus; agar serial dilution, 24 hours, 37° C.; read-out: minimal inhibitory concentration (MIC)
[8] = 24 h, read-out: minimal inhibitory concentration (MIC)
[9] = read-out: minimal inhibitory concentration (MIC)
[10] = Proteus mirabilis, read-out: minimal inhibitory concentration (MIC)

With “7-[α-morpholino(3-methyl-1,2,4-oxadiazol-5-yl)-acetamido]-3-acetoxymethyl-3-cephem-4-carboxylic acid [Compound E]” the “minimal inhibitory concentration (MIC)” value (Bac.Subt.ATCC 6633) was 6 µg/mL, the “minimal inhibitory concentration (MIC)” value (Staph.aureus A 321) was 6 µg/mL and the “minimal inhibitory concentration (MIC)” value (Staph.aureus A 2000 [1]) was 12.5 µg/mL. The “minimal inhibitory concentration (MIC)” value (Staph.aureus A 2001 [2]) was 12.5 µg/mL, the “minimal inhibitory concentration (MIC)” value (Strep. faec. L 80) was greater than 100 µg/mL and the “minimal inhibitory concentration (MIC)” value (Dipl.pneum. L 54) was 12.5 µg/mL. The “minimal inhibitory concentration (MIC)” value (Past.multo. A 723) was 6 µg/mL, the “minimal inhibitory concentration (MIC)” value (Kleb.pneum. A 809) was 25 µg/mL and the “minimal inhibitory concentration (MIC)” value (Salm.dubl. P 43) was greater than 100 µg/mL. For the same compound, the “minimal inhibitory concentration (MIC)” value (Salm.typh. R 127; 24 hours) was greater than 100 µg/mL, the “minimal inhibitory concentration (MIC)” value (Esch.coli U 20) was greater than 100 µg/mL and the “minimal inhibitory concentration (MIC)” value (Shig.equir. T 3; 24 hours) was greater than 100 µg/mL. The “minimal inhibitory concentration (MIC)” value (Pseud.aerug. H 10) was greater than 100 µg/mL, the “minimal inhibitory concentration (MIC)” value (Pseud.aerug. 2396) was greater than 100 µg/mL and the “minimal inhibitory concentration (MIC)” value [3] was greater than 100 µg/mL. For the same compound, the “minimal inhibitory concentration (MIC)” value (Prot.rettg. A 821) was 3 µg/mL, the “minimal inhibitory concentration (MIC)” value (Prot.mirab. H 3) was greater than 100 µg/mL and the “minimal inhibitory concentration (MIC)” value (Prot.mirab. L 93) was 100 µg/mL. For the same compound, the “minimal inhibitory concentration (MIC)” value (Prot.mirab. A 1200) was greater than 100 µg/mL, the “minimal inhibitory concentration (MIC)” value (Prot.morg. 2241) was greater than 100 µg/mL and the “minimal inhibitory concentration (MIC)” value (Staph.aureus A 355 [4]) was 8 µg/mL. The “minimal inhibitory concentration (MIC)” value (Staph.aureus A 2000 [5]) was 8 µg/mL, the “minimal inhibitory concentration (MIC)” value (Staph.aureus A 2001 [6]) was 4 µg/mL and the “minimal inhibitory concentration (MIC)” value (Haem.infl. A 1030) was greater than 125 µg/mL. The “minimal inhibitory concentration (MIC)” value (Staph.aureus A 355 [7]; agar serial dilution, 24 hours, 37° C.) was 12.5 µg/mL.

Work on `CC(=O)OCC1=C(C(=O)O)N2C(=O)[C@@H](NC(=O)Cc3noc(Cc4ccccc4)n3)[C@H]2SC1` [Compound C, 7-[(5-benzyl-1,2,4-oxadiazol-3-yl)-acetamido]-3-acetoxymethyl-3-cephem-4-carboxylic acid] yielded an MIC (Bac.Subt.ATCC 6633; Bacillus subtilis, ATCC6633, 24 h, read-out: minimal inhibitory concentration (MIC)) of 0.25 µg/mL (≈ 0.529 µM), an MIC (Staph.aureus A 321; Staphylococcus aureus, A321, 24 h, read-out: minimal inhibitory concentration (MIC)) of 0.25 µg/mL (≈ 0.529 µM) and an MIC (Staph.aureus A 2000 [1]; Staphylococcus aureus, A2000, 24 h, read-out: minimal inhibitory concentration (MIC)) of 0.25 µg/mL (≈ 0.529 µM). For the same compound, the MIC (Staph.aureus A 2001 [2]; Staphylococcus aureus, A2001, 24 h, read-out: minimal inhibitory concentration (MIC)) was 0.25 µg/mL (≈ 0.529 µM), the MIC (Strep.haem. A 266) was 0.5 µg/mL (≈ 1.06 µM) and the MIC (Strep. faec. L 80; Enterococcus faecalis, read-out: minimal inhibitory concentration (MIC)) was 12.5 µg/mL (≈ 26.5 µM). It also gave an MIC (Dipl.pneum. L 54; Streptococcus pneumoniae, read-out: minimal inhibitory concentration (MIC)) of 0.5 µg/mL (≈ 1.06 µM), an MIC (Past.multo. A 723; Pasteurella multocida, read-out: minimal inhibitory concentration (MIC)) of 1 µg/mL (≈ 2.12 µM) and an MIC (Kleb.pneum. A 809; Klebsiella pneumoniae, read-out: minimal inhibitory concentration (MIC)) of 12.5 µg/mL (≈ 26.5 µM). The MIC (Salm.dubl. P 43; Salmonella enterica, read-out: minimal inhibitory concentration (MIC)) was greater than 100 µg/mL, the MIC (Salm.typh. R 127; [8]) was greater than 100 µg/mL and the MIC (Esch.coli U 20; Escherichia coli, U20, read-out: minimal inhibitory concentration (MIC)) was greater than 100 µg/mL. For the same compound, the MIC (Shig.equir. T 3; [8]) was 25 µg/mL (≈ 52.9 µM), the MIC (Pseud.aerug. H 10; [9]) was greater than 100 µg/mL and the MIC (Pseud.aerug. 2396; [9]) was greater than 100 µg/mL. The MIC [3, 9] was greater than 100 µg/mL, the MIC (Prot.rettg. A 821; Providencia rettgeri, 24 h, read-out: minimal inhibitory concentration (MIC)) was 50 µg/mL (≈ 106 µM) and the MIC (Prot.mirab. H 3; [10]) was greater than 100 µg/mL. It also gave an MIC (Prot.mirab. L 93; [10]) of 25 µg/mL (≈ 52.9 µM), an MIC (Prot.mirab. A 1200; Proteus mirabilis, 24 h, read-out: minimal inhibitory concentration (MIC)) greater than 100 µg/mL and an MIC (Prot.morg. 2241; [8]) greater than 100 µg/mL. It also gave an MIC (Staph.aureus A 355 [4]; Staphylococcus aureus, A355, read-out: minimal inhibitory concentration (MIC)) of 0.6 µg/mL (≈ 1.27 µM), an MIC (Staph.aureus A 2000 [5]; Staphylococcus aureus, A2000, 18 h, read-out: minimal inhibitory concentration (MIC)) of 0.3 µg/mL (≈ 0.635 µM) and an MIC (Staph.aureus A 2001 [6]; Staphylococcus aureus, A2001, 18 h, read-out: minimal inhibitory concentration (MIC)) of 0.6 µg/mL (≈ 1.27 µM). The MIC (Haem.infl. A 1030; 18 h, read-out: minimal inhibitory concentration (MIC)) was 125 µg/mL (≈ 265 µM) and the MIC (Staph.aureus A 355 [7]; Staphylococcus aureus, A355, 24 h, read-out: minimal inhibitory concentration (MIC), agar serial dilution, 24 hours, 37° C.) was 0.75 µg/mL (≈ 1.59 µM).
